# According to ChEMBL document CHEMBL3779792, “Anti-proliferative evaluation of monoterpene derivatives against leukemia” (Eur J Med Chem, 2016):
# System: not listed separately
# Assay: Cytotoxicity against human NALM6 cells after 72 hrs by Cell-Titer Glo assay
# Type: functional, cell-based
# Details: NALM-6, 72 h
row,Compound,EC50
1,C=C[C@@](C)(/C=C/c1ccc(Nc2cc(C(F)(F)F)cc(C(F)(F)F)c2)cc1)CCC=C(C)C,> 43.5 µM
2,C=C[C@@](C)(/C=C/c1ccc(O)c(/C=C/c2ccc(Cl)cc2)c1)CCC=C(C)C,> 43.5 µM
3,C=C[C@@](C)(/C=C/c1ccc(Nc2cc(F)cc(F)c2)cc1)CCC=C(C)C,> 43.5 µM
4,C=C[C@@](C)(/C=C/c1ccc(-c2ccc(Cl)cc2)cc1)CCC=C(C)C,> 43.5 µM
5,C=C[C@@](C)(/C=C/c1ccc(-c2cccc(Br)c2)cc1)CCC=C(C)C,> 43.5 µM
6,CC(C)=CCC[C@@](C)(/C=C/c1ccc(C)cc1)/C=C/c1ccc(O)cc1,> 43.5 µM
7,C=C[C@@](C)(/C=C/c1ccc(-c2cccc(F)c2)cc1)CCC=C(C)C,> 43.5 µM
8,C=C[C@@](C)(/C=C/c1ccc(Nc2ccccc2)cc1)CCC=C(C)C,> 43.5 µM
9,C=C[C@@](C)(/C=C/c1ccc(Nc2ccc(F)cc2)cc1)CCC=C(C)C,> 43.5 µM
10,C=C[C@@](C)(/C=C/c1ccc(Nc2cccc(C(F)(F)F)c2)cc1)CCC=C(C)C,> 43.5 µM
11,CC(C)=CCC[C@](C)(/C=C/c1ccc(O)cc1)/C=C/c1cccc(F)c1,> 43.5 µM
12,C=C[C@@](C)(/C=C/c1ccc(Nc2ccc(Cl)cc2)cc1)CCC=C(C)C,> 43.5 µM
13,CC(C)=CCC[C@](C)(/C=C/c1ccc(O)cc1)/C=C/c1cccc(Cl)c1,> 43.5 µM
14,C=C[C@@](C)(/C=C/c1ccc(Nc2ccc(OC(F)(F)F)cc2)cc1)CCC=C(C)C,> 43.5 µM
15,C=C[C@@](C)(/C=C/c1ccc(Nc2ccc(Cl)c(Cl)c2)cc1)CCC=C(C)C,> 43.5 µM
16,C=C[C@@](C)(/C=C/c1ccc(Nc2ccc(OC)c(OC)c2)cc1)CCC=C(C)C,> 43.5 µM

# System: not listed separately
# Assay: Cytotoxicity against human SEM cells after 72 hrs by Cell-Titer Glo assay
# Type: functional, cell-based
# Details: not given
row,Compound,EC50
1,C=C[C@@](C)(/C=C/c1ccc(Nc2cc(C(F)(F)F)cc(C(F)(F)F)c2)cc1)CCC=C(C)C,> 36.6 µM
2,C=C[C@@](C)(/C=C/c1ccc(O)c(/C=C/c2ccc(Cl)cc2)c1)CCC=C(C)C,> 36.6 µM
3,C=C[C@@](C)(/C=C/c1ccc(Nc2cc(F)cc(F)c2)cc1)CCC=C(C)C,> 36.6 µM
4,C=C[C@@](C)(/C=C/c1ccc(-c2ccc(Cl)cc2)cc1)CCC=C(C)C,> 36.6 µM
5,C=C[C@@](C)(/C=C/c1ccc(-c2cccc(Br)c2)cc1)CCC=C(C)C,> 36.6 µM
6,CC(C)=CCC[C@@](C)(/C=C/c1ccc(C)cc1)/C=C/c1ccc(O)cc1,> 36.6 µM
7,C=C[C@@](C)(/C=C/c1ccc(-c2cccc(F)c2)cc1)CCC=C(C)C,> 36.6 µM
8,C=C[C@@](C)(/C=C/c1ccc(Nc2ccccc2)cc1)CCC=C(C)C,> 36.6 µM
9,C=C[C@@](C)(/C=C/c1ccc(Nc2ccc(F)cc2)cc1)CCC=C(C)C,> 36.6 µM
10,C=C[C@@](C)(/C=C/c1ccc(Nc2cccc(C(F)(F)F)c2)cc1)CCC=C(C)C,> 36.6 µM
11,CC(C)=CCC[C@](C)(/C=C/c1ccc(O)cc1)/C=C/c1cccc(F)c1,> 36.6 µM
12,C=C[C@@](C)(/C=C/c1ccc(Nc2ccc(Cl)cc2)cc1)CCC=C(C)C,> 36.6 µM
13,CC(C)=CCC[C@](C)(/C=C/c1ccc(O)cc1)/C=C/c1cccc(Cl)c1,> 36.6 µM
14,C=C[C@@](C)(/C=C/c1ccc(Nc2ccc(OC(F)(F)F)cc2)cc1)CCC=C(C)C,> 36.6 µM
15,C=C[C@@](C)(/C=C/c1ccc(Nc2ccc(Cl)c(Cl)c2)cc1)CCC=C(C)C,> 36.6 µM
16,C=C[C@@](C)(/C=C/c1ccc(Nc2ccc(OC)c(OC)c2)cc1)CCC=C(C)C,> 36.6 µM

# System: HepG2
# Assay: Cytotoxicity against human HepG2 cells after 72 hrs by Cell-Titer Glo assay
# Type: functional, cell-based
# Details: HepG2, 72 h
row,Compound,EC50
1,C=C[C@@](C)(/C=C/c1ccc(Nc2cc(C(F)(F)F)cc(C(F)(F)F)c2)cc1)CCC=C(C)C,> 52.1 µM
2,C=C[C@@](C)(/C=C/c1ccc(O)c(/C=C/c2ccc(Cl)cc2)c1)CCC=C(C)C,> 52.1 µM
3,C=C[C@@](C)(/C=C/c1ccc(Nc2cc(F)cc(F)c2)cc1)CCC=C(C)C,> 52.1 µM
4,C=C[C@@](C)(/C=C/c1ccc(-c2ccc(Cl)cc2)cc1)CCC=C(C)C,> 52.1 µM
5,C=C[C@@](C)(/C=C/c1ccc(-c2cccc(Br)c2)cc1)CCC=C(C)C,> 52.1 µM
6,CC(C)=CCC[C@@](C)(/C=C/c1ccc(C)cc1)/C=C/c1ccc(O)cc1,> 52.1 µM
7,C=C[C@@](C)(/C=C/c1ccc(-c2cccc(F)c2)cc1)CCC=C(C)C,> 52.1 µM
8,C=C[C@@](C)(/C=C/c1ccc(Nc2ccccc2)cc1)CCC=C(C)C,> 52.1 µM
9,C=C[C@@](C)(/C=C/c1ccc(Nc2ccc(F)cc2)cc1)CCC=C(C)C,> 52.1 µM
10,C=C[C@@](C)(/C=C/c1ccc(Nc2cccc(C(F)(F)F)c2)cc1)CCC=C(C)C,> 52.1 µM
11,CC(C)=CCC[C@](C)(/C=C/c1ccc(O)cc1)/C=C/c1cccc(F)c1,> 52.1 µM
12,C=C[C@@](C)(/C=C/c1ccc(Nc2ccc(Cl)cc2)cc1)CCC=C(C)C,> 52.1 µM
13,CC(C)=CCC[C@](C)(/C=C/c1ccc(O)cc1)/C=C/c1cccc(Cl)c1,> 52.1 µM
14,C=C[C@@](C)(/C=C/c1ccc(Nc2ccc(OC(F)(F)F)cc2)cc1)CCC=C(C)C,> 52.1 µM
15,C=C[C@@](C)(/C=C/c1ccc(Nc2ccc(Cl)c(Cl)c2)cc1)CCC=C(C)C,> 52.1 µM
16,C=C[C@@](C)(/C=C/c1ccc(Nc2ccc(OC)c(OC)c2)cc1)CCC=C(C)C,> 52.1 µM

# System: Raji
# Assay: Cytotoxicity against human Raji cells after 72 hrs by Cell-Titer Glo assay
# Type: functional, cell-based
# Details: not given
row,Compound,EC50
1,C=C[C@@](C)(/C=C/c1ccc(Nc2cc(C(F)(F)F)cc(C(F)(F)F)c2)cc1)CCC=C(C)C,> 26 µM
2,C=C[C@@](C)(/C=C/c1ccc(O)c(/C=C/c2ccc(Cl)cc2)c1)CCC=C(C)C,> 26 µM
3,C=C[C@@](C)(/C=C/c1ccc(Nc2cc(F)cc(F)c2)cc1)CCC=C(C)C,> 26 µM
4,C=C[C@@](C)(/C=C/c1ccc(-c2ccc(Cl)cc2)cc1)CCC=C(C)C,> 26 µM
5,C=C[C@@](C)(/C=C/c1ccc(-c2cccc(Br)c2)cc1)CCC=C(C)C,> 26 µM
6,CC(C)=CCC[C@@](C)(/C=C/c1ccc(C)cc1)/C=C/c1ccc(O)cc1,> 26 µM
7,C=C[C@@](C)(/C=C/c1ccc(-c2cccc(F)c2)cc1)CCC=C(C)C,> 26 µM
8,C=C[C@@](C)(/C=C/c1ccc(Nc2ccccc2)cc1)CCC=C(C)C,> 26 µM
9,C=C[C@@](C)(/C=C/c1ccc(Nc2ccc(F)cc2)cc1)CCC=C(C)C,> 26 µM
10,C=C[C@@](C)(/C=C/c1ccc(Nc2cccc(C(F)(F)F)c2)cc1)CCC=C(C)C,> 26 µM
11,CC(C)=CCC[C@](C)(/C=C/c1ccc(O)cc1)/C=C/c1cccc(F)c1,> 26 µM
12,C=C[C@@](C)(/C=C/c1ccc(Nc2ccc(Cl)cc2)cc1)CCC=C(C)C,> 26 µM
13,CC(C)=CCC[C@](C)(/C=C/c1ccc(O)cc1)/C=C/c1cccc(Cl)c1,> 26 µM
14,C=C[C@@](C)(/C=C/c1ccc(Nc2ccc(OC(F)(F)F)cc2)cc1)CCC=C(C)C,> 26 µM
15,C=C[C@@](C)(/C=C/c1ccc(Nc2ccc(Cl)c(Cl)c2)cc1)CCC=C(C)C,> 26 µM
16,C=C[C@@](C)(/C=C/c1ccc(Nc2ccc(OC)c(OC)c2)cc1)CCC=C(C)C,> 26 µM

# System: Jurkat
# Assay: Cytotoxicity against human Jurkat cells after 72 hrs by Cell-Titer Glo assay
# Type: functional, cell-based
# Details: not given
row,Compound,EC50
1,C=C[C@@](C)(/C=C/c1ccc(O)c(/C=C/c2ccc(Cl)cc2)c1)CCC=C(C)C,> 49 µM

# System: BJ
# Assay: Cytotoxicity against human BJ cells after 72 hrs by Cell-Titer Glo assay
# Type: cell-based
# Details: not given
row,Compound,EC50
1,C=C[C@@](C)(/C=C/c1ccc(Nc2cc(C(F)(F)F)cc(C(F)(F)F)c2)cc1)CCC=C(C)C,> 36.6 µM
2,C=C[C@@](C)(/C=C/c1ccc(O)c(/C=C/c2ccc(Cl)cc2)c1)CCC=C(C)C,> 36.6 µM
3,C=C[C@@](C)(/C=C/c1ccc(Nc2cc(F)cc(F)c2)cc1)CCC=C(C)C,> 36.6 µM
4,C=C[C@@](C)(/C=C/c1ccc(-c2ccc(Cl)cc2)cc1)CCC=C(C)C,> 36.6 µM
5,C=C[C@@](C)(/C=C/c1ccc(-c2cccc(Br)c2)cc1)CCC=C(C)C,> 36.6 µM
6,CC(C)=CCC[C@@](C)(/C=C/c1ccc(C)cc1)/C=C/c1ccc(O)cc1,> 36.6 µM
7,C=C[C@@](C)(/C=C/c1ccc(-c2cccc(F)c2)cc1)CCC=C(C)C,> 36.6 µM
8,C=C[C@@](C)(/C=C/c1ccc(Nc2ccccc2)cc1)CCC=C(C)C,> 36.6 µM
9,C=C[C@@](C)(/C=C/c1ccc(Nc2ccc(F)cc2)cc1)CCC=C(C)C,> 36.6 µM
10,C=C[C@@](C)(/C=C/c1ccc(Nc2cccc(C(F)(F)F)c2)cc1)CCC=C(C)C,> 36.6 µM
11,CC(C)=CCC[C@](C)(/C=C/c1ccc(O)cc1)/C=C/c1cccc(F)c1,> 36.6 µM
12,C=C[C@@](C)(/C=C/c1ccc(Nc2ccc(Cl)cc2)cc1)CCC=C(C)C,> 36.6 µM
13,CC(C)=CCC[C@](C)(/C=C/c1ccc(O)cc1)/C=C/c1cccc(Cl)c1,> 36.6 µM
14,C=C[C@@](C)(/C=C/c1ccc(Nc2ccc(OC(F)(F)F)cc2)cc1)CCC=C(C)C,> 36.6 µM
15,C=C[C@@](C)(/C=C/c1ccc(Nc2ccc(Cl)c(Cl)c2)cc1)CCC=C(C)C,> 36.6 µM
16,C=C[C@@](C)(/C=C/c1ccc(Nc2ccc(OC)c(OC)c2)cc1)CCC=C(C)C,> 36.6 µM

# System: HEK293
# Assay: Cytotoxicity against HEK293 cells after 72 hrs by Cell-Titer Glo assay
# Type: cell-based
# Details: Homo sapiens, HEK293, 72 h
row,Compound,EC50
1,C=C[C@@](C)(/C=C/c1ccc(Nc2cc(C(F)(F)F)cc(C(F)(F)F)c2)cc1)CCC=C(C)C,> 36.6 µM
2,C=C[C@@](C)(/C=C/c1ccc(O)c(/C=C/c2ccc(Cl)cc2)c1)CCC=C(C)C,> 36.6 µM
3,C=C[C@@](C)(/C=C/c1ccc(Nc2cc(F)cc(F)c2)cc1)CCC=C(C)C,> 36.6 µM
4,C=C[C@@](C)(/C=C/c1ccc(-c2ccc(Cl)cc2)cc1)CCC=C(C)C,> 36.6 µM
5,C=C[C@@](C)(/C=C/c1ccc(-c2cccc(Br)c2)cc1)CCC=C(C)C,> 36.6 µM
6,CC(C)=CCC[C@@](C)(/C=C/c1ccc(C)cc1)/C=C/c1ccc(O)cc1,> 36.6 µM
7,C=C[C@@](C)(/C=C/c1ccc(-c2cccc(F)c2)cc1)CCC=C(C)C,> 36.6 µM
8,C=C[C@@](C)(/C=C/c1ccc(Nc2ccccc2)cc1)CCC=C(C)C,> 36.6 µM
9,C=C[C@@](C)(/C=C/c1ccc(Nc2ccc(F)cc2)cc1)CCC=C(C)C,> 36.6 µM
10,C=C[C@@](C)(/C=C/c1ccc(Nc2cccc(C(F)(F)F)c2)cc1)CCC=C(C)C,> 36.6 µM
11,CC(C)=CCC[C@](C)(/C=C/c1ccc(O)cc1)/C=C/c1cccc(F)c1,> 36.6 µM
12,C=C[C@@](C)(/C=C/c1ccc(Nc2ccc(Cl)cc2)cc1)CCC=C(C)C,> 36.6 µM
13,CC(C)=CCC[C@](C)(/C=C/c1ccc(O)cc1)/C=C/c1cccc(Cl)c1,> 36.6 µM
14,C=C[C@@](C)(/C=C/c1ccc(Nc2ccc(OC(F)(F)F)cc2)cc1)CCC=C(C)C,> 36.6 µM
15,C=C[C@@](C)(/C=C/c1ccc(Nc2ccc(Cl)c(Cl)c2)cc1)CCC=C(C)C,> 36.6 µM
16,C=C[C@@](C)(/C=C/c1ccc(Nc2ccc(OC)c(OC)c2)cc1)CCC=C(C)C,> 36.6 µM
